The text below walks through data of US9796700B2 (Celgene CAR LLC, priority 2013, dated 2017).

Each structure is given as a SMILES string.

For the test, the target named is Erk1 (Homo sapiens (Human), UniProt P27361). As to the kind of experiment: Protein Mass Modification Assay (intact protein MALDI). In kind it is binding. Here is the method: Protein Mass Modification Assay
Sequence of Erk1 (P27361 whole entry, looked up): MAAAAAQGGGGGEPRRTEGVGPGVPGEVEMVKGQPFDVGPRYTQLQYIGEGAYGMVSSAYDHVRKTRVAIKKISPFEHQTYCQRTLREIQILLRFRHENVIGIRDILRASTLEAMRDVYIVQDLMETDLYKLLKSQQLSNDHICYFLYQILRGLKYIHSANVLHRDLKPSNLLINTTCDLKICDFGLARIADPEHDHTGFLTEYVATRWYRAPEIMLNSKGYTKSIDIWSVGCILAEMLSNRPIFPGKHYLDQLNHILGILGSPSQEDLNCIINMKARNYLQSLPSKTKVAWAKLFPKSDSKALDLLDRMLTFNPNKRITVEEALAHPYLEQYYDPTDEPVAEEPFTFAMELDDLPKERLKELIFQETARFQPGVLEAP
Intact protein: Erk1 from Millipore (Cat. No. 14-439) was incubated for 60 min. at room temperature with a 10-fold excess of test compound to protein. 4 μL aliquots of the resulting mixture were diluted with 15 μL of 0.2% TFA prior to micro C4 ZipTipping directly onto the MALDI target using sinapinic acid as the desorption matrix (10 mg/ml in 0.1% TFA:Acetonitrile 50:50, v/v). The centroid mass of the target protein in the control sample was compared with the centroid mass of the target protein incubated with compound. A shift in the centroid mass of the treated protein compared to the untreated protein was divided by the molecular weight of the compound. This number corresponds to the percentage of modified protein after one hour incubation. Results from this assay are reported in Table A under the column “ERK1 Mass Mod (%).”
For `C=CC(=O)Nc1ccccc1Nc1nc(Nc2ccc(N(CCCNC(=O)OC(C)(C)C)C(C)=O)cc2C(F)(F)F)ncc1Cl` [Compound I-169, tert-butyl (3-(N-(4-((4-((2-acrylamidophenyl)amino)-5-chloropyrimidin-2-yl)amino)-3-(trifluoromethyl)phenyl)acetamido)propyl)carbamate], the “ERK1 Mass Mod (%)” value is “E (provided a mass modification of ≧70%)”. For `C=CC(=O)Nc1ccccc1Nc1nc(Nc2cc(C(=O)O)ccc2C)ncc1C(F)(F)F` [Compound I-78, 3-((4-((2-Acrylamidophenyl)amino)-5-(trifluoromethyl)pyrimidin-2-yl)amino)-4-methylbenzoic acid], the “ERK1 Mass Mod (%)” value is given as “E (provided a mass modification of ≧70%)”. Regarding `C=CC(=O)Nc1ccccc1Nc1nc(Nc2ccc3c(c2OC)CCCC(=O)N3CCCNC(=O)OC(C)(C)C)ncc1Cl` [Compound I-147, tert-butyl (3-(7-((4-((2-acrylamidophenyl)amino)-5-chloropyrimidin-2-yl)amino)-6-methoxy-2-oxo-2,3,4,5-tetrahydro-1H-benzo[b]azepin-1-yl)propyl)carbamate], the “ERK1 Mass Mod (%)” value was “E (provided a mass modification of ≧70%)”.

As to `C=CC(=O)Nc1ccccc1Nc1nc(NC2CCN(S(C)(=O)=O)CC2)ncc1Cl` [Compound I-117, N-(2-((5-chloro-2-((1-(methylsulfonyl)piperidin-4-yl)amino)pyrimidin-4-yl)amino)phenyl)acrylamide], the “ERK1 Mass Mod (%)” value is “E (provided a mass modification of ≧70%)”.

With `C=CC(=O)Nc1ccccc1Nc1nc(N[C@H]2CCN(C(=O)OC)C2)ncc1C(F)(F)F` [Compound I-59, (S)-methyl 3-((4-((2-Acrylamidophenyl)amino)-5-(trifluoromethyl)pyrimidin-2-yl)amino)pyrrolidine-1-carboxylate], the “ERK1 Mass Mod (%)” value is reported as “E (provided a mass modification of ≧70%)”.

Turning to `O=C(CCl)N[C@@H]1CCCC[C@H]1Nc1nc(N[C@H]2CCCN(C(=O)CO)C2)ncc1C(F)(F)F` [Compound I-35, 2-Chloro-N-((1R,2R)-2-((2-(((S)-1-(2-hydroxyacetyl)piperidin-3-yl)amino)-5-(trifluoromethyl)pyrimidin-4-yl)amino)cyclohexyl)acetamide], the “ERK1 Mass Mod (%)” value is on record as “G (proived a mass modification ≦30%)”.

`C=CC(=O)Nc1ccccc1Nc1nc(Nc2cc(C(=O)NC)c(F)cc2C)ncc1C(F)(F)F` [Compound I-80, 5-((4-((2-Acrylamidophenyl)amino)-5-(trifluoromethyl)pyrimidin-2-yl)amino)-2-fluoro-N,4-dimethylbenzamide]: the “ERK1 Mass Mod (%)” value is listed as “E (provided a mass modification of ≧70%)”. With `C=CC(=O)Nc1cc(F)ccc1Nc1nc(N[C@@H]2CCC[C@H](C(N)=O)C2)ncc1Cl` (racemic) [Compound I-112, Rac-cis-3-((4-((2-acrylamido-4-fluorophenyl)amino)-5-chloropyrimidin-2-yl)amino)cyclohexanecarboxamide], the “ERK1 Mass Mod (%)” value is listed as “E (provided a mass modification of ≧70%)”. On to `C=CC(=O)Nc1ccccc1Nc1nc(Nc2ccc(NC(=O)COC(C)=O)cc2OC)ncc1Cl` [Compound I-183, 2-((4-((4-((2-acrylamidophenyl)amino)-5-chloropyrimidin-2-yl)amino)-3-methoxyphenyl)amino)-2-oxoethyl acetate], for which the “ERK1 Mass Mod (%)” value is given as “E (provided a mass modification of ≧70%)”. Then `C=CC(=O)Nc1cc(C)ccc1Nc1nc(Nc2cc(C(C)=O)ccc2C)ncc1Cl` [Compound I-239, N-(2-((2-((5-acetyl-2-methylphenyl)amino)-5-chloropyrimidin-4-yl)amino)-5-methylphenyl)acrylamide], with “E (key: E: provided a mass modification of ≧70%; F: provided a mass modification of 31-69%; G: proived a mass modification ≦30%)”; and `C=CC(=O)N(C)c1ccccc1Nc1nc(N[C@@H]2CCC[C@H](C(=O)NOC)C2)ncc1Cl` (racemic) [Compound I-106, Rac-cis-3-((5-chloro-4-((2-(N-methylacrylamido)phenyl)amino)pyrimidin-2-yl)amino)-N-methoxycyclohexanecarboxamide], with “F (provided a mass modification of 31-69%)”; and `C=CC(=O)Nc1ccccc1Oc1nc(Nc2ccc(N3CCC[C@@H]3CO)cc2OC)ncc1C(N)=O` [Compound I-263, (R)-4-(2-acrylamidophenoxy)-2-((4-(2-(hydroxymethyl)pyrrolidin-1-yl)-2-methoxyphenyl)amino)pyrimidine-5-carboxamide], with “E (provided a mass modification of ≧70%)”.

As to `C/C=C/C(=O)Nc1cc(F)ccc1Nc1nc(N[C@@H]2CCC[C@H](C(N)=O)C2)ncc1C(F)(F)F` (racemic) [Compound I-6, Rac-(E)-3-((4-((2-(but-2-enamido)-4-fluorophenyl)amino)-5-(trifluoromethyl)pyrimidin-2-yl)amino)-cis-cyclohexanecarboxamide], the “ERK1 Mass Mod (%)” value was “E (provided a mass modification of ≧70%)”.

`C=CC(=O)Nc1ccccc1Nc1nc(Nc2cc(C(=O)NOCCO)ccc2C)ncc1C(F)(F)F` [Compound I-73, 3-((4-((2-Acrylamidophenyl)amino)-5-(trifluoromethyl)pyrimidin-2-yl)amino)-N-(2-hydroxyethoxy)-4-methylbenzamide]: the “ERK1 Mass Mod (%)” value is recorded as “E (key: E: provided a mass modification of ≧70%; F: provided a mass modification of 31-69%; G: proived a mass modification ≦30%)”. `C=CC(=O)N[C@H]1CCCC[C@@H]1Nc1nc(N[C@H]2CCCN(C(=O)CO)C2)ncc1Cl` (racemic) [Compound I-141, Rac-N-(2-((5-chloro-2-(((R)-1-(2-hydroxyacetyl)piperidin-3-yl)amino)pyrimidin-4-yl)amino)-trans-cyclohexyl)acrylamide]: the “ERK1 Mass Mod (%)” value is “E (provided a mass modification of ≧70%)”. On to `C=CC(=O)Nc1ccccc1Nc1nc(Nc2ccc(N3CCOCC3)cc2OC)ncc1/C(C)=N/O` [Compound I-275, (E)-N-(2-((5-(1-(hydroxyimino)ethyl)-2-((2-methoxy-4-morpholinophenyl)amino)pyrimidin-4-yl)amino)phenyl)acrylamide], for which the “ERK1 Mass Mod (%)” value is recorded as “G (proived a mass modification ≦30%)”.

In the case of `C=CC(=O)Nc1ccccc1Nc1nc(Nc2ccc(NS(C)(=O)=O)cc2OC)ncc1Cl` [Compound I-185, N-(2-((5-chloro-2-((2-methoxy-4-(methylsulfonamido)phenyl)amino)pyrimidin-4-yl)amino)phenyl)acrylamide], the “ERK1 Mass Mod (%)” value was “E (provided a mass modification of ≧70%)”. Then `C=CC(=O)Nc1ccccc1Nc1nc(Nc2ccc3c(c2OC)CCCC(=O)N3CCCN2CCOCC2)ncc1C(N)=O` [Compound I-253, 4-((2-acrylamidophenyl)amino)-2-((6-methoxy-1-(3-morpholinopropyl)-2-oxo-2,3,4,5-tetrahydro-1H-benzo[b]azepin-7-yl)amino)pyrimidine-5-carboxamide], with “F (provided a mass modification of 31-69%)”; and `C=CC(=O)Nc1ccccc1Nc1nc(NC2CCN(C(=O)CCCC(=O)NCCCOCCOCCOCCCNC(=O)CCCC[C@@H]3SC[C@@H]4NC(=O)N[C@@H]43)CC2)ncc1Cl` [Compound I-300, 5-(4-((4-((2-acrylamidophenyl)amino)-5-chloropyrimidin-2-yl)amino)piperidin-1-yl)-5-oxo-N-(15-oxo-19-((3aS,4S,6aR)-2-oxohexahydro-1H-thieno[3,4-d]imidazol-4-yl)-4,7,10-trioxa-14-azanonadecyl)pentanamide], with “E (provided a mass modification of ≧70%)”. Take `CC(=O)N1CCC[C@H](Nc2ncc(C(F)(F)F)c(Nc3ccccc3NC(=O)CCl)n2)C1` [Compound I-30, (S)—N-(2-((2-((1-Acetylpiperidin-3-yl)amino)-5-(trifluoromethyl)pyrimidin-4-yl)amino)phenyl)-2-chloroacetamide]: the “ERK1 Mass Mod (%)” value was “G (proived a mass modification ≦30%)”. Then `C=CC(=O)Nc1ccccc1Nc1nc(Nc2ccc(N(CC)C(C)=O)cc2C(F)(F)F)ncc1Cl` [Compound I-320], with “F (provided a mass modification of 31-69%)”. For the molecule `O=C(CCCl)Nc1ccccc1Nc1nc(N[C@H]2CCCN(C(=O)CO)C2)ncc1C(F)(F)F` [Compound I-22, (S)-3-Chloro-N-(2-((2-((1-(2-hydroxyacetyl)piperidin-3-yl)amino)-5-(trifluoromethyl)pyrimidin-4-yl)amino)phenyl)propanamide], the “ERK1 Mass Mod (%)” value is “G (proived a mass modification ≦30%)”. For the molecule `C=CC(=O)Nc1ccccc1Nc1nc(Nc2cc(OC)cc(OC)c2)ncc1C(F)(F)F` [Compound I-338, N-(2-((2-((3,5-dimethoxyphenyl)amino)-5-(trifluoromethyl)pyrimidin-4-yl)amino)phenyl)acrylamide], the “ERK1 Mass Mod (%)” value was “E (provided a mass modification of ≧70%)”. For the molecule `C=CC(=O)Nc1ccccc1Nc1nc(N[C@H]2CCCN(C(C)=O)C2)ncc1Cl` [Compound I-115, (S)—N-(2-((2-((1-acetylpiperidin-3-yl)amino)-5-chloropyrimidin-4-yl)amino)phenyl) acrylamide], the “ERK1 Mass Mod (%)” value is given as “E (provided a mass modification of ≧70%)”. In the case of `C=CC(=O)Nc1ccccc1Nc1nc(N[C@@H]2CCC[C@H](C(=O)NOC)C2)ncc1Cl` (racemic) [Compound I-203, Rac-cis-3-((4-((2-acrylamidophenyl)amino)-5-chloropyrimidin-2-yl)amino)-N-methoxy-cyclohexanecarboxamide], the “ERK1 Mass Mod (%)” value is listed as “E (provided a mass modification of ≧70%)”. In the case of `CC(=O)N1CCC[C@H](Nc2ncc(C(F)(F)F)c(NC3C4C=CC(C4)C3C(=O)NC#N)n2)C1` (mixture of isomers) [Compound I-25, Rac-3-((2-(((S)-1-acetylpiperidin-3-yl)amino)-5-(trifluoromethyl)pyrimidin-4-yl)-cis-amino)-N-cyanobicyclo[2.2.1]hept-5-ene-2-carboxamide], the “ERK1 Mass Mod (%)” value was “G (proived a mass modification ≦30%)”.
